A value given as a limit tells only on which side of the number the result lay.

For this assay, the target named is T1, androgen receptor (AR) (Homo sapiens, UniProt P10275, T878A).
T1 sequence (P10275 1-920 T878A): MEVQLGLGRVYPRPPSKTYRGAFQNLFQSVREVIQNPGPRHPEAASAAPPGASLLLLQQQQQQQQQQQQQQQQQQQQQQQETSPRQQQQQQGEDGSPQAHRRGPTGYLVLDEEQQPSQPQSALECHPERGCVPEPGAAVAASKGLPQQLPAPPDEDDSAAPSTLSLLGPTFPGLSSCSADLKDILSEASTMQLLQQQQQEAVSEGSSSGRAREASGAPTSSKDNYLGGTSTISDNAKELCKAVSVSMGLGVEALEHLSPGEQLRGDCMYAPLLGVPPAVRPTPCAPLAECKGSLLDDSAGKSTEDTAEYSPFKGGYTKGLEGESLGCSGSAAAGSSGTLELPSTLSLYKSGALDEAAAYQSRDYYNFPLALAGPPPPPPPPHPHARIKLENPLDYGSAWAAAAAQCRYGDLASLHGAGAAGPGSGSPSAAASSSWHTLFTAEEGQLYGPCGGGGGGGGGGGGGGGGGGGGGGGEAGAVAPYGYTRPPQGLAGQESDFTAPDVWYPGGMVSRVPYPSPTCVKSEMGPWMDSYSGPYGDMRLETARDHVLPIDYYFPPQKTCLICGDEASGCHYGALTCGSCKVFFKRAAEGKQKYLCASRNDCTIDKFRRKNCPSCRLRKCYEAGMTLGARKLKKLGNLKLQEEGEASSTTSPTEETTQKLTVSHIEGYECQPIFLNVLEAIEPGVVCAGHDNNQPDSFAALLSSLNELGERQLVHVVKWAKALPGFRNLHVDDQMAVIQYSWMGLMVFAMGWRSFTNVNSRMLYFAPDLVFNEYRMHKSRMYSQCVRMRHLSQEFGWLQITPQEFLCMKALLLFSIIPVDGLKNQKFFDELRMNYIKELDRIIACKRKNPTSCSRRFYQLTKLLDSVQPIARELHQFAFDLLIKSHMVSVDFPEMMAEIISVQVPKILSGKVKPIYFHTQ
Put plainly: Androgen-induced PSA (6.1 kb)-luciferase reporter assay in LNCaP cells (R1881 1 nM). The format is cell-based. Also noted: endogenous in cells; host or cells: LNCaP. The following applies: 24 h, read-out: PSA-Luc IC50 Range. Here is the method:
The PSA (6.1 kb)-luciferase reporter contains functional AREs (androgen response elements) to which AR binds in response to androgen to induce luciferase activity. LNCaP cells were transiently transfected with the PSA (6.1 kb)-luciferase reporter for 24 h, and then pretreated with vehicle (DMSO) or indicated concentration of representative compounds for one hour prior to the addition of synthetic androgen, R1881 (1 nM). After 24 h of incubation with R1881, the cells were harvested, and relative luciferase activities were determined (FIG. 1). To determine the IC50, treatments were normalized to vehicle control activity induced by R1881 (Table 2).
Luciferase Assay: Cells were lysed using Passive Lysis Buffer (Promega) and then collected into V-bottom 96-well tissue culture plates. Lysates were centrifuged at 4° C. for 5 minutes at 3000 rpm. To measure luminescence of LNCaP cell lysates the Firefly Luciferase Assay System (Promega) was employed, according to manufacturer's protocol. Relative luminescence units (RLU) in cell lysates were detected for 10 seconds using Promega GloMax-Multi Detection Luminometer (Promega). Values were normalized to protein content. GraphPad Prism graphing software was used to calculate IC50 values.
Statistical analyses were performed using GraphPad Prism (Version 6.01 for Windows; La Jolla, Calif., USA). Comparisons between treatment and control groups were compared using Two-Way ANOVA with post-hoc Dunnett's and Tukey's tests. Differences were considered statistically significant at P values less than 0.05.
The term IC50 denotes the concentration at which inhibition is half-maximal. For `CC(C)(c1ccc(OCc2ccnc(NS(C)(=O)=O)n2)cc1)c1cc(Cl)c(N2CCOCC2)c(C#N)c1` [Compound A283], the 50% inhibitory concentration (IC50) fell in the range of 500 to 2000 nM. The result for `CC(C)(c1ccc(OCc2ccnc(NS(C)(=O)=O)n2)cc1)c1cc(Cl)c(N2CCC(CO)CC2)c(C#N)c1` [Compound A90] reads 500 to 2000 nM. The figure for `CC(C)(c1ccc(-c2ccc3nc(N)ncc3c2)cc1)c1cc(Cl)c(OCCCl)c(C#N)c1` [Compound A177] is 500 to 2000 nM; for `COCc1c(F)cc(-n2ccc3cc(OCc4ccnc(NS(C)(=O)=O)n4)ccc32)cc1Cl` [Compound A74] it is 500 to 2000 nM. With `CS(=O)(=O)NCC1CCN1CCc1ccc2c(ccn2-c2cc(Cl)c(OCCCl)c(C#N)c2)c1` (centres unmarked) [Compound A248], the half-maximal inhibitory concentration (IC50) was > 2000 nM. The figure for `CS(=O)(=O)Nc1nccc(COc2ccc(-n3ccc4c(C#N)c(OCCCl)c(C#N)cc43)cc2)n1` [Compound A75] is > 2000 nM; for `CC(C)(c1ccc(-c2ccc3nc(NS(C)(=O)=O)nnc3c2)cc1)c1cc(Cl)c(OCCCl)c(C#N)c1` [Compound A108] it is > 2000 nM. On to `CC(C)(c1ccc(OCc2ccnc(NS(C)(=O)=O)n2)cc1)c1cc(F)c(N2CC(CO)C2)c(C#N)c1` [Compound A253], for which the IC50 is > 2000 nM. The figure for `CS(=O)(=O)Nc1nccc(COc2ccc3c(-c4cc(Cl)c(OCCCl)c(C#N)c4)cnn3c2)n1` [Compound A64] is > 2000 nM; for `CC(C)(c1ccc(OCc2ccnc(NS(C)(=O)=O)c2N)cc1)c1cc(Cl)c(OCCCl)c(C#N)c1` [Compound A97] it is < 500 nM; for `CS(=O)(=O)NC12CC(COc3ccc4c(-c5cc(Cl)c(OCCCl)c(C#N)c5)csc4c3)(C1)C2` [Compound A138] it is > 2000 nM. The result for `CC(C)(c1ccc(Oc2cccc3nc(NS(C)(=O)=O)ncc23)cc1)c1cc(Cl)c(OCCCl)c(C#N)c1` [Compound A117] reads 500 to 2000 nM; that for `CC(C)(c1ccc(OCC23CCN(S(C)(=O)=O)C(C2)C3)cc1)c1cc(Cl)c(OCCCl)c(C#N)c1` [Compound A284], 500 to 2000 nM. The result for `CC(C)(c1ccc(-c2ccn3c(S(C)(=O)=O)c(N)nc3c2)cc1)c1cc(Cl)c(OCCCl)c(C#N)c1` [Compound A112] reads > 2000 nM.

Turning to `Cn1nc(NC(=O)C(F)(F)F)cc1COc1ccc(C(C)(C)c2cc(Cl)c(OCCCl)c(C#N)c2)cc1` [Compound A127], the half-inhibitory concentration (IC50) lay within 500 to 2000 nM.

As for `Cn1cc(-c2cc(Cl)c(OCCCl)c(C#N)c2)c2ccc(OCc3ccnc(NS(C)(=O)=O)n3)cc21` [Compound A157], the 50% inhibitory concentration (IC50) is 500 to 2000 nM. The result for `CC(C)(c1ccc(OCc2ccnc(NS(C)(=O)=O)n2)cc1)c1cc(C#N)c2ccc(Cl)cc2c1` [Compound A25] reads 500 to 2000 nM; that for `CC(C)(c1ccc(-c2cnc3nc(NS(C)(=O)=O)oc3c2)cc1)c1cc(Cl)c(OCCCl)c(C#N)c1` [Compound A257], > 2000 nM. The figure for `CS(=O)(=O)N1CC(O)(COc2ccc3c(ccn3-c3cc(Cl)c(OCCCl)c(C#N)c3)c2)C1` [Compound A158] is 500 to 2000 nM; for `CC(C)(c1ccc(-c2ccc3c(cnn3S(C)(=O)=O)c2)cc1)c1cc(Cl)c(OCCCl)c(C#N)c1` [Compound A111] it is > 2000 nM.

Turning to `CS(=O)(=O)Nc1nccc(COc2ccc3c(c2)OCCN3c2cc(Cl)c(OCCCl)c(C#N)c2)n1` [Compound A28, N-(4-(((4-(3-chloro-4-(2-chloroethoxy)-5-cyanophenyl)-3,4-dihydro-2H-benzo[b][1,4]oxazin-7-yl)oxy)methyl)pyrimidin-2-yl)methanesulfonamide], the IC50 was in the range of 500 to 2000 nM. The figure for `CS(=O)(=O)NC1CC2(C1)CN(Cc1ccc3c(ccn3-c3cc(Cl)c(OCCCl)c(C#N)c3)c1)C2` [Compound A171] is > 2000 nM; for `CS(=O)(=O)N1CCC[C@@H](COc2ccc3c(ccn3-c3cc(Cl)c(OCCCl)c(C#N)c3)c2)C1` [Compound A204] it is > 2000 nM.

As for `CC(C)(c1ccc(OCc2cncc(NS(C)(=O)=O)c2)cc1)c1cc(Cl)c(OCCCl)c(C#N)c1` [Compound A49], the IC50 is 500 to 2000 nM. The figure for `CS(=O)(=O)Nc1nccc(COc2ccc3cc(-c4cc(Cl)c(OCCCl)c(C#N)c4)ccc3c2)n1` [Compound A148] is > 2000 nM. The figure for `CS(=O)(=O)NC1CCN(CCOc2ccc3c(ccn3-c3cc(Cl)c(OCCCl)c(C#N)c3)c2)CC1` [Compound A220] is > 2000 nM; for `CS(=O)(=O)N1CCN(CCc2ccc3c(ccn3-c3cc(Cl)c(OCCCl)c(C#N)c3)c2)C(=O)C1` [Compound A125] it is > 2000 nM. `CC1(NS(C)(=O)=O)CN(CCc2ccc3c(ccn3-c3cc(Cl)c(OCCCl)c(C#N)c3)c2)C1` [Compound A244]: the half-inhibitory concentration (IC50) is > 2000 nM. `CC(C)(c1ccc(OCC23CCC(NS(C)(=O)=O)(C2)C3)cc1)c1cc(Cl)c(OCCCl)c(C#N)c1` [Compound A271]: the IC50 lay within 500 to 2000 nM. The figure for `CC(C)(c1ccc(OCc2ccnc(NS(C)(=O)=O)n2)cc1)c1cnc(OCCCl)c(Cl)c1` [Compound A103] is > 2000 nM. The figure for `CS(=O)(=O)N[C@H]1CC[C@@H](Oc2ccc3c(ccn3-c3cc(Cl)c(OCCCl)c(C#N)c3)c2)C1` [Compound A226] is 500 to 2000 nM; for `CC(C)(c1ccc(OCc2ccnc(NS(C)(=O)=O)n2)cc1)c1cc(Cl)c(-c2cccc(Cl)c2)c(C#N)c1` [Compound A1] it is > 2000 nM; for `CS(=O)(=O)Nc1nccc(COc2ccc3c(ccn3-c3cc(Cl)c(OCC(Cl)(Cl)Cl)c(C#N)c3)c2)n1` [Compound A22] it is > 2000 nM.

`CS(=O)(=O)Nc1cc(NCc2ccc3c(ccn3-c3cc(Cl)c(OCCCl)c(C#N)c3)c2)ccn1` [Compound A78]: the IC50 is > 2000 nM. The result for `CC(C)(c1ccc(-c2ccc3c(c2)OCC(CNS(C)(=O)=O)O3)cc1)c1cc(Cl)c(OCCCl)c(C#N)c1` (centres unmarked) [Compound A230] reads > 2000 nM. The result for `CS(=O)(=O)N[C@@H]1CC[C@@H](Oc2ccc3c(ccn3-c3cc(Cl)c(OCCCl)c(C#N)c3)c2)C1` [Compound A207] reads 500 to 2000 nM; that for `Cc1nc(NS(C)(=O)=O)ncc1COc1ccc(C(C)(C)c2cc(Cl)c(OCCCl)c(C#N)c2)cc1` [Compound A91], 500 to 2000 nM; that for `CS(=O)(=O)Nc1nccc(COc2ccc3c(c2)CC[C@H]3c2cc(Cl)c(OCCCl)c(C#N)c2)n1` [A35(S)], 500 to 2000 nM. Take `CS(=O)(=O)N1CCCC(Oc2ccc3c(ccn3-c3cc(Cl)c(OCCCl)c(C#N)c3)c2)CC1` (centres unmarked) [Compound A202]: the IC50 is > 2000 nM. The figure for `CC(C)(c1ccc(OCc2cccc(S(C)(=O)=O)c2)cc1)c1cc(Cl)c(OCCCl)c(C#N)c1` [Compound A47] is 500 to 2000 nM.

As to `CC(C)(c1ccc(OCc2ccnc(NS(C)(=O)=O)n2)cc1)c1cc(Cl)c(OCC(O)CCl)c(C#N)c1` (centres unmarked) [Compound A258], the IC50 was > 2000 nM.

As for `CS(=O)(=O)N1CC2(CC(COc3ccc4c(ccn4-c4cc(Cl)c(OCCCl)c(C#N)c4)c3)C2)C1` [Compound A162], the IC50 lay within 500 to 2000 nM. The result for `CC(C)(c1ccc(-c2c[nH]c3nc(NS(C)(=O)=O)ncc23)cc1)c1cc(Cl)c(OCCCl)c(C#N)c1` [Compound A198] reads 500 to 2000 nM; that for `CS(=O)(=O)Nc1nccc(COc2ccc3c(-c4cc(Cl)c(OCCCl)c(C#N)c4)ncnc3c2)n1` [Compound A18], > 2000 nM. As for `CC(C)CNc1ncc(C(C)(C)c2ccc(OCc3ccnc(NS(C)(=O)=O)n3)cc2)cc1Cl` [Compound A67], the 50% inhibitory concentration (IC50) was > 2000 nM. On to `CC(C)(c1ccc(-c2n[nH]c3nc(NS(C)(=O)=O)ncc23)cc1)c1cc(Cl)c(OCCCl)c(C#N)c1` [Compound A203], for which the half-maximal inhibitory concentration (IC50) was in the range of 500 to 2000 nM.

`CC(C)(c1ccc(-c2cnc3nc(NS(C)(=O)=O)ccc3n2)cc1)c1cc(Cl)c(OCCCl)c(C#N)c1` [Compound A279]: the half-inhibitory concentration (IC50) lay within 500 to 2000 nM.

For the origin of these results see US20220380378A1 (ESSA Pharma, Inc., priority 2021, published 2022).
